In patent publication US20240327408A1, “COMPOUNDS CONTAINING TETRAHYDRONAPHTHYRIDINONE OR TETRAHYDROPYRIDOPYRIMIDINONE SKELETON, PREPARATION METHOD THEREFOR AND PHARMACEUTICAL USE THEREOF” (CHINA PHARMACEUTICAL UNIVERSITY, priority 2021, published 2024):

How the values were obtained:
hClpP = biological target: T1, hClpP (Homo sapiens, UniProt Q16740); assay: activating ClpP hydrolysis of FITC-casein (fluorescence kinetic detection); type: biochemical; settings: hClpP 1 μM, FITC-Casein 4 μM, 37° C.
T1 construct: made in house
Procedure: The specific procedures were as follows:
Test compounds were each prepared into a 100 mM stock solution in DMSO and stored. and 1 μL of stock solution of each of the compounds was taken and diluted to 10 mM by adding 9 μL of DMSO for later use.
The compounds of formula I of the present invention were each diluted at concentrations of 200 μM, 50 μM, 10 μM, 2 μM, 500 nM, 100 nM, 20 nM, and 2 nM in an assay buffer. 50 μL of each of the compounds at different concentrations was added to each well, with 2 replicate wells.
The protein was diluted to 4 μM in an assay buffer. 25 μL of protein was added to each well, and incubated at 37° C. for 30 min. The final concentration was 1 μM.
25 μL of FITC-Casein was added to each well. The final concentration was 4 μM. The mixture was immediately loaded on the machine for detection.
FITC-Casein and FITC-Casein+ClpP were used as negative controls.
The detection temperature was 37° C. The plate was shaken for 3 s. […] Kinetic parameters were set, and scanning was performed once every 1 min for 15 min.

MV4; 11 cells = assay: inhibiting the growth of MV4; 11 cells; type: cell-based; settings: Homo sapiens

T1 sequence (Q16740 57-277): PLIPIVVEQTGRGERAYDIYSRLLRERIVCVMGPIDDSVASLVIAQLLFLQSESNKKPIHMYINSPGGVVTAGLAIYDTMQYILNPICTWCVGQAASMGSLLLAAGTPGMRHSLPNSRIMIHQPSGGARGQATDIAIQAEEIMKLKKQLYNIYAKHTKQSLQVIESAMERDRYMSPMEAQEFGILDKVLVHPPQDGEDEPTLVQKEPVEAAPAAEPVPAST

| Structure (SMILES) | EC50 (hClpP) | IC50 (MV4; 11 cells) |
| --- | --- | --- |
| Cc1cccc(CN2CCc3c(c(=O)n(Cc4ccccc4)c4nccn34)C2)c1 [Compound I-110, 7-(3-methylbenzyl)-4-benzyl-6,7,8,9-tetrahydroimidazo[1,2-a]pyrido[3,4-e]pyrimidine-5(4H)-one] | < 1 µM | < 1 µM |
| COc1ccc(Cn2c(=O)c3c(n4ccnc24)CCN(Cc2ccccc2)C3)cc1 [Compound I-142, 7-benzyl-4-(4-methoxybenzyl)-6,7,8,9-tetrahydroimidazo[1,2-a]pyrido[3,4-e]pyrimidine-5(4H)-one] | < 1 µM | < 1 µM |
| O=c1c2c(c3ccccc3n1Cc1ccc(C(F)(F)F)cc1)CCN(Cc1ccccc1)C2 [Compound I-80, 3-benzyl-6-(4-(trifluoromethyl)benzyl)-2,3,4,6-tetrahydrobenzo[c][2,7]naphthyridine-5-(1H)-one] | < 1 µM | < 1 µM |
| Cc1cccc(CN2CCc3c(c(=O)n(Cc4ccccc4)c4ncccc34)C2)c1 [Compound I-15, 6-benzyl-3-(3-methylbenzyl)-2,3,4,6-tetrahydropyrido[3,4-c][1,8]naphthyridine-5-(1H)-one] | < 1 µM | < 1 µM |
| O=c1c2c(n3ccnc3n1Cc1ccc(F)cc1)CCN(Cc1cccc(F)c1)C2 [Compound I-113, 7-(3-fluorobenzyl)-4-(4-fluorobenzyl)-6,7,8,9-tetrahydroimidazo[1,2-a]pyrido[3,4-e]pyrimidine-5(4H)-one] | < 1 µM | < 1 µM |
| O=c1c2c(n3ncnc3n1Cc1ccc(C(F)(F)F)cc1)CCN(Cc1cccc(Cl)c1)C2 [Compound I-150, 4-(4-trifluoromethylbenzyl)-7-(3-chlorobenzyl)-6,7,8,9-tetrahydropyrido[3,4-e][1,2,4]triazolo[1,5-a]pyrimidine-5(4H)-one] | 1 to 10 µM | 1 to 10 µM |
| N#Cc1cccc(CN2CCc3c(c(=O)n(Cc4ccccc4)c4ncccc34)C2)c1 [Compound I-82, 6-benzyl-3-(3-cyanobenzyl)-2,3,4,6-tetrahydropyrido[3,4-c][1,8]naphthyridine-5-(1H)-one] | < 1 µM | < 1 µM |
| O=c1c2c(c3cccnc3n1Cc1ccc(F)cc1)CCN(Cc1cccc(F)c1)C2 [Compound I-71, 3-(3-fluorobenzyl)-6-(4-fluorobenzyl)-2,3,4,6-tetrahydropyrido[3,4-c][1,8]naphthyridine-5-(1H)-one] | < 1 µM | < 1 µM |
| O=c1c2c(n3nccc3n1Cc1ccc(Cl)cc1)CCN(Cc1cccc(Cl)c1)C2 [Compound I-162, 4-(4-chlorobenzyl)-7-(3-chlorobenzyl)-6,7,8,9-tetrahydropyrazolo[1,5-a]pyrido[3,4-e]pyrimidine-5(4H)-one] | 1 to 10 µM | 1 to 10 µM |
| CCc1cccc(CN2CCc3c(c(=O)n(Cc4ccccc4)c4ncccc34)C2)c1 [Compound I-16, 6-benzyl-3-(3-ethylbenzyl)-2,3,4,6-tetrahydropyrido[3,4-c][1,8]naphthyridine-5-(1H)-one] | 1 to 10 µM | < 1 µM |
| O=c1c2c(n3ccnc3n1Cc1ccccc1)CCN(Cc1cccc(Cl)c1)C2 [Compound I-109, 7-(3-chlorobenzyl)-4-benzyl-6,7,8,9-tetrahydroimidazo[1,2-a]pyrido[3,4-e]pyrimidine-5(4H)-one] | < 1 µM | < 1 µM |
| CCc1ccc(Cn2c(=O)c3c(n4ccnc24)CCN(Cc2cccc(Cl)c2)C3)cc1 [Compound I-139, 7-(3-chlorobenzyl)-4-(4-ethylbenzyl)-6,7,8,9-tetrahydroimidazo[1,2-a]pyrido[3,4-e]pyrimidine-5(4H)-one] | < 1 µM | < 1 µM |
| Cc1ccc(Cn2c(=O)c3c(n4ccnc24)CCN(Cc2cccc(C)c2)C3)cc1 [Compound I-135, 7-(3-methylbenzyl)-4-(4-methylbenzyl)-6,7,8,9-tetrahydroimidazo[1,2-a]pyrido[3,4-e]pyrimidine-5(4H)-one] | < 1 µM | < 1 µM |
| O=c1c2c(c3cccnc3n1Cc1ccccc1)CCN(Cc1ccncc1)C2 [Compound I-29, 6-benzyl-3-(pyridin-4-ylmethyl)-2,3,4,6-tetrahydropyrido[3,4-c][1,8]naphthyridine-5-(1H)-one] | 10 to 100 µM | 1 to 10 µM |
| COc1ccc(Cn2c(=O)c3c(n4ccnc24)CCN(Cc2cccc(C#N)c2)C3)cc1 [Compound I-146, 7-(3-cyanobenzyl)-4-(4-methoxybenzyl)-6,7,8,9-tetrahydroimidazo[1,2-a]pyrido[3,4-e]pyrimidine-5(4H)-one] | < 1 µM | < 1 µM |
| Cn1ccnc1CN1CCc2c(c(=O)n(Cc3ccccc3)c3ncccc23)C1 [Compound I-31, 6-benzyl-3-((1-methyl-1H-imidazol-2-yl)methyl)-2,3,4,6-tetrahydropyrido[3,4-c][1,8]naphthyridine-5-(1H)-one] | 10 to 100 µM | 1 to 10 µM |
| O=c1c2c(c3cccnc3n1Cc1cccnc1)CCN(Cc1ccccc1)C2 [Compound I-62, 3-benzyl-6-(pyridin-3-ylmethyl)-2,3,4,6-tetrahydropyrido[3,4-c][1,8]naphthyridine-5-(1H)-one] | 10 to 100 µM | 1 to 10 µM |
| O=c1c2c(c3cccnc3n1Cc1ccccc1)CCN(CC1CCCC1)C2 [Compound I-3, 6-benzyl-3-(cyclopentylmethyl)-2,3,4,6-tetrahydropyrido[3,4-c][1,8]naphthyridine-5-(1H)-one] | 10 to 100 µM | 1 to 10 µM |
| Cn1cncc1Cn1c(=O)c2c(c3cccnc31)CCN(Cc1ccccc1)C2 [Compound I-67, 3-benzyl-6-((1-methyl-1H-imidazol-5-yl)methyl)-2,3,4,6-tetrahydropyrido[3,4-c][1,8]naphthyridine-5-(1H)-one] | 10 to 100 µM | 1 to 10 µM |
| Cc1noc(C)c1CN1CCc2c(c(=O)n(Cc3ccccc3)c3ncccc23)C1 [Compound I-34, 6-benzyl-3-((3,5-dimethylisoxazol-4-yl)methyl)-2,3,4,6-tetrahydropyrido[3,4-c][1,8]naphthyridine-5-(1H)-one] | 10 to 100 µM | 1 to 10 µM |
| Cc1cccc(CN2CCc3c(c(=O)n(Cc4ccc(F)cc4F)c4nccn34)C2)c1 [Compound I-125, 7-(3-methylbenzyl)-4-(2,4-difluorobenzyl)-6,7,8,9-tetrahydroimidazo[1,2-a]pyrido[3,4-e]pyrimidine-5(4H)-one] | < 1 µM | < 1 µM |
| O=c1c2c(c3cccnc3n1Cc1ccc(F)cc1)CCN(Cc1cccc(Br)c1)C2 [Compound I-73, 3-(3-bromobenzyl)-6-(4-fluorobenzyl)-2,3,4,6-tetrahydropyrido[3,4-c][1,8]naphthyridine-5-(1H)-one] | < 1 µM | < 1 µM |
| Cc1ccc(Cn2c(=O)c3c(c4cccnc42)CCN(Cc2ccccc2)C3)cc1 [Compound I-55, 3-benzyl-6-(4-methylbenzyl)-2,3,4,6-tetrahydropyrido[3,4-c][1,8]naphthyridine-5-(1H)-one] | < 1 µM | < 1 µM |
| O=c1c2c(n3ccnc3n1Cc1ccc(F)cc1)CCN(Cc1cccc(Cl)c1)C2 [Compound I-114, 7-(3-chlorobenzyl)-4-(4-fluorobenzyl)-6,7,8,9-tetrahydroimidazo[1,2-a]pyrido[3,4-e]pyrimidine-5(4H)-one] | < 1 µM | < 1 µM |
